Measurements as given in patent US6841684B2, “Imidiazoles having reduced side effects” (Allergan, Inc., priority 1997, dated 2005).
Where a name gives a salt, the structure may show the parent alone.

test system: conscious cynomolgus monkeys; assay: Cardiovascular side effects (blood pressure, heart rate) after i.v. administration; type: in vivo, cynomolgus monkey; settings: i.v. 50 μg/kg, up to 6 hours; + with * = increase from base levels
From the text: Cardiovascular measurements were made in a different group of monkeys using a BP 100S automated sphygmomanometer (Nippon Colin,. Japan).

| SMILES | Maximum % Decrease From Pretreatment Levels, Heart Rate [%] | Maximum % Decrease From Pretreatment Levels, Mean Arterial Blood Pressure [%] |
| --- | --- | --- |
| Cc1ccsc1Cc1cnc[nH]1 [4(5)-(3-methyl-thiophen-2-ylmethyl)-1H-imidazole, reference compound] | 23 ± 4 | 9 ± 3 |

same assay, conditions: i.v. 167 μg/kg, up to 6 hours; + with * = increase from base levels

| SMILES | Maximum % Decrease From Pretreatment Levels, Heart Rate [%] | Maximum % Decrease From Pretreatment Levels, Mean Arterial Blood Pressure [%] |
| --- | --- | --- |
| Cc1ccsc1Cc1cnc[nH]1 [4(5)-(3-methyl-thiophen-2-ylmethyl)-1H-imidazole, reference compound] | 32 ± 8 | 8 ± 6 |

same assay, conditions: intravenous administration, monkeys

| SMILES | effect on heart rate (in words) |
| --- | --- |
| Cc1ccsc1Cc1cnc[nH]1 [4(5)-(3-methyl-thiophen-2-ylmethyl)-1H-imidazole, reference compound] | weak effect on heart rate |

biological target: T1, rat α2B (RNG gene) receptor (Rattus norvegicus, UniProt P19328); assay: RSAT (Receptor Selection and Amplification Technology) assay, alpha 2B; type: cell-based; settings: ratio of maximal effect to that of standard full agonist oxymetazoline
T1 construct: expressed in transfected cells; host or cells: NIH-3T3 cells, calcium phosphate cotransfection
T1 sequence (P19328 1-453): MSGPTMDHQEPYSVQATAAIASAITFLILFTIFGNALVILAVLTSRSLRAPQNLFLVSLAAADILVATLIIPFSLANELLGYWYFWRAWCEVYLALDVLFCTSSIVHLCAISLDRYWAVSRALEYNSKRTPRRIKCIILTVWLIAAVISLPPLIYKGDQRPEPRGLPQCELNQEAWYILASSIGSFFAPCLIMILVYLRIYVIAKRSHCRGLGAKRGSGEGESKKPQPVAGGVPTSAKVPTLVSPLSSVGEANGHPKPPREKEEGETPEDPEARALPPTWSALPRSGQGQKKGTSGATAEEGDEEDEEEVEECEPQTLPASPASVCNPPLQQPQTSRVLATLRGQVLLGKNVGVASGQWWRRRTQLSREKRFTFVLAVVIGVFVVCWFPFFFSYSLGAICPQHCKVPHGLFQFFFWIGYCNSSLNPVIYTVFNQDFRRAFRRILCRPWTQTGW
From the text: This preferential activity can be determined in a variety of functional assays such as Cyclic AMP Production, Shimizu et al, J. Neurochem. […] In the study below, the RSAT assay on cells that have been transiently transfected with the human α2A (c10 gene), rat α2B (RNG gene) and human α2C (c4 gene) receptors was used.
The assay measures a receptor-mediated loss of contact inhibition that results in selective proliferation of receptor-containing cells in a mixed population of confluent cells. The increase in cell number is assessed with an appropriate transfected marker gene such as b-galactosidase, the activity of which can be easily measured in a 96-well format. Receptors that activate the G protein, Gq, elicit this response. Alpha2 receptors, which normally couple to Gi, activate the RSAT response when coexpressed with a hybrid Gq protein that has a Gi receptor recognition domain, called Gq/i5^2.
NIH-3T3 cells are plated at a density of 2×10^6 cells in 15 cm dishes and maintained in Dulbecco's modified Eagle's medium supplemented with 10% calf serum. One day later, cells are cotransfected by calcium phosphate precipitation with mammalian expression plasmids encoding p-SV-b-galactosidase (5-10 mg), receptor (1-2 mg) and G protein (1-2 mg). 40 mg salmon sperm DNA may also be included in the transfection mixture. Fresh media is added on the following day and 1-2 days later, cells are harvested and frozen in 50 assay aliquots. Cells are thawed and 100 ml added to […] aliquots of various concentrations of drugs in triplicate in 96-well dishes. Incubations continue 72-96 hr at 37°. After washing with phosphate-buffered saline, b-galactosidase enzyme activity is determined by adding 200 ml of the chromogenic substrate (consisting of 3.5 mM o-nitrophenyl-b-D-galactopyranoside and 0.5% nonidet P-40 in phosphate buffered saline), incubating overnight at 30° and measuring optical density at 420 nm. The absorbence is a measure of enzyme activity, which depends on cell number and reflects a receptor-mediated cell proliferation. The EC50 and maximal effect of each drug at each alpha2 receptor is determined. The efficacy or intrinsic activity is calculated as a ratio of the maximal effect of the drug to the maximal effect of a standard full agonist for each receptor subtype.

| SMILES | Intrinsic Activity Relative to Oxymetazoline, Alpha 2B |
| --- | --- |
| Cc1ccsc1Cc1cnc[nH]1 [4(5)-(3-methyl-thiophen-2-ylmethyl)-1H-imidazole, reference compound] | 1.4 |
| OC1c2ccccc2OCC1Cc1c[nH]cn1 (stereo not shown) [Example B-2c, 3-(1H-imidazol-4(5)-ylmethyl)chroman-4-ol] | 0.65 |
| C1=C(Cc2c[nH]cn2)COc2ccccc21 [Example 1J] | 0.5 |
| CC1=CCC(Cc2c[nH]cn2)CC1 (stereo not shown) [Example X-1, 4(5)-(4-Methyl-cyclohex-3-enylmethyl)-1H-imidazole, but-2-enedioic acid salt] | 0.8 |
| Cl.c1nc(CC2CC3CCCC3C2)c[nH]1 (stereo not shown) [Example O, 4(5)-octahydro pentalen-2-ylmethyl-1H-imidazole, hydrochloride] | 0.67 |
| C1=C2CCCCC2CCC1Cc1c[nH]cn1 (stereo not shown) [Example N-2, 4(5)-(2,3,4,4a,5,6,7,8-octahydronaphthalen-2-ylmethyl)-1H-imidazole] | 0.5 |
| c1ccc2c(c1)CCCC(Cc1c[nH]cn1)C2 (stereo not shown) [Example B-11a, 4(5)-(6,7,8,9-tetrahydro-5H-benzocyclohepten-6-ylmethyl)-1H-imidazole] | 0.9 |
| c1ccc(-c2csc(Cc3c[nH]cn3)c2)cc1 [Example C-13, 4(5)-(4-phenylthiophen-2-ylmethyl)-1H-imidazole] | 0.5 |
| COc1ccc2c(c1)CC(Cc1c[nH]cn1)CC2.Cl (stereo not shown) [Example B-1, 4(5)-(7-methoxy-1,2,3,4-tetrahydronaphthalen-2-ylmethyl)-1H-imidazole, hydrogen chloride salt] | 0.45 |
| CC1(C)CC(Cc2c[nH]cn2)Cc2ccccc21 (stereo not shown) [Example B-10, 4(5)-(4,4-dimethyl-1,2,3,4-tetrahydronaphthalen-2-ylmethyl)-1H-imidazole] | 0.3 |
| C#CC1=CC(Cc2c[nH]cn2)CCC1 (stereo not shown) [Example 1O] | 0.8 |
| C[C@@]12CCCCC1=C[C@@H](Cc1c[nH]cn1)CC2 [Example S, 4(5)-(4a-methyl-2,3,4,4a,5,6,7,8-octahydro-naphthalen-2-ylmethyl)-1H-imidazole, but-2-enedioic acid salt] | .6 |
| CCC1=CCCCC1Cc1c[nH]cn1 (stereo not shown) [Example 1N] | 0.7 |
| O=C1c2ccccc2SCC1Cc1c[nH]cn1 (stereo not shown) [Example B-5b, 3-(1H-imidazol-4(5)-ylmethyl)thiochroman-4-one] | 0.5 |
| O=C1/C(=C/c2c[nH]cn2)COc2ccccc21 [Example B-2a, 3-(1H-imidazol-4(5)-ylmethylene)chroman-4-one] | 0.63 |
| CCC1=CC(Cc2c[nH]cn2)CCC1 (stereo not shown) [Example 1P] | 0.7 |
| C#CC1=CCC(Cc2c[nH]cn2)CC1 (stereo not shown) [Example 1K] | 0.6 |
| O=C1/C(=C/c2c[nH]cn2)CSc2ccccc21 [Example B-5a, 3-(1H-imidazol-4(5)-ylmethylene)thiochroman-4-one] | 0.5 |

| SMILES | Intrinsic Activity Relative to Oxymetazoline, Alpha 2B |
| --- | --- |
| Brc1csc(Cc2c[nH]cn2)c1 [Example C-12, 4(5)-(4-bromothiophen-2-ylmethyl)-1H-imidazole] | 1.3 |
| Cc1ccc2c(c1)C(=O)C(Cc1c[nH]cn1)CC2 (stereo not shown) [Example B-8a, 2-(1-H-imidazol-4(5)-ylmethyl)-7-methyl-3,4-dihydro-2H-naphthalen-1-one] | 0.4 |
| c1ccc(Sc2c[nH]cn2)cc1 [H, 4(5)-phenylsulfanyl-1H-imidazole] | 0.93 |
| c1nc(Cc2cc3c(s2)SCCC3)c[nH]1 [Example K-3, 4(5)-(5,6-dihydro-4H-thieno[2,3-b]thiopyran-2-ylmethyl)-1H-imidazole] | 0.37 |
| Cc1ccc2c(c1)CC(Cc1c[nH]cn1)CC2.Cl (stereo not shown) [Example B-8b, 4(5)-(7-methyl-1,2,3,4-tetrahydronaphthalen-2-ylmethyl)-1H-imidazole, hydrogen chloride salt] | 0.6 |
| CC1=CC(Cc2c[nH]cn2)CCC1 (stereo not shown) [Example T-1, 4(5)-(3-methyl-cyclohex-2-enylmethyl)-1H-imidazole, but-2-enedioic acid salt] | 0.8 |
| Cc1ccc(N=C2NCCN2)c2c1NCCO2.Cl [G, imidazolin-2-ylidene-(5-methyl-3,4-dihydro-2H-benzo[1,4]oxazin-8-yl) amine, hydrogen chloride salt] | 0.87 |
| COc1ccc2c(c1)C(=O)C(Cc1c[nH]cn1)CC2 (stereo not shown) [Example B-1a, 2-(1H-imidazol-4(5)-ylmethyl)-7-methoxy-3,4-dihydro-2H-naphthalen-1-one] | 0.6 |
| C1=CCC(Cc2c[nH]cn2)CC1 (stereo not shown) [Example W-2, 4(5)-Cyclohex-3-enylmethyl-1H-imidazole, but-2-enedioic acid salt] | 0.6 |
| C1=CC(Cc2c[nH]cn2)CCC1 (stereo not shown) [Example U-1, 4(5)-cyclohex-2-enylmethyl-1H-imidazole, but-2-enedioic acid salt] | 0.6 |
| CC(C)(C)c1ccc(Cc2c[nH]cn2)o1 [Example K-2, 4(5)-(5-tert-butylfuran-2-ylmethyl)-1H-imidazole] | 0.7 |
| Cl.c1nc(CC2CCC3SCCC3C2)c[nH]1 (stereo not shown) [Example B-9c, 5-(octahydrobenzo[b]thiophen-5-ylmethyl)-1H-imidazole, hydrochloride] | 0.3 |
| c1ccc2c(c1)CCCC2Cc1c[nH]cn1 (stereo not shown) [Example 1H] | 0.6 |
| O=C1c2cnccc2CCC1Cc1c[nH]cn1 (stereo not shown) [Example P-1, 7-(1H-imidazol-4(5)-ylmethyl)-6,7-dihydro-5H-isoquinoline-8-one, fumarate] | 0.4 |
| C1CO/C(=N\C2CC3CCC2C3)N1 [Example D-3, bicyclo[2.2.1]hept-2-yl oxazolidin-2-ylidene amine] | 0.4 |
| c1cnc2c(c1)CC(Cc1c[nH]cn1)CC2 (stereo not shown) [Example Q-4, 6-(1H-imidazol-4(5)-ylmethyl)-5,6,7,8-tetrahydro-quinoline, dihydrochloride] | 0.8 |
| O=C1/C(=C/c2c[nH]cn2)CCc2nccnc21 [Example R-1, (E)-6-(1H-imidazol-4(5)-ylmethylene)-7,8-dihydro-6H-quinoxalin-5-one] | 0.8 |
